From ChEMBL document CHEMBL1201862, “PubChem BioAssay data set” (2004)
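Tested at 5 concentrations; 48 h exposure; 96-well plates; endpoints linearly interpolated, else capped at highest concentration. GI50: concentration for 50% inhibition of growth.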 Activity calls are given as the source filed them. No stated cut-off is given here; in the data, active = GI50 up to about 1.1 µM and inactive = higher.

Assays:
Test in all cases: NCI anticancer screen, dose series, 48 h
OVCAR-4 = system: OVCAR-4
NCI-H23 = system: NCI-H23
HOP-62 = system: HOP-62
HCC 2998 = system: HCC 2998
ACHN = system: ACHN
NCI/ADR-RES = system: NCI/ADR-RES
HCT-15 = system: HCT-15
RPMI-8226 = system: RPMI-8226
OVCAR-5 = system: OVCAR-5
SNB-75 = system: SNB-75
LOX IMVI = system: LOX IMVI
HCT-116 = system: HCT-116
IGROV-1 = system: IGROV-1
HT-29 = system: HT-29
OVCAR-8 = system: OVCAR-8
RXF 393 = system: RXF 393
SN12C = system: SN12C
HL-60 = system: HL-60
MOLT-4 = system: MOLT-4
SK-MEL-28 = system: SK-MEL-28
TK-10 = system: TK-10
SR = system: SR
OVCAR-3 = system: OVCAR-3
MDA-MB-435 = system: MDA-MB-435
786-0 = system: 786-0
CAKI-1 = system: CAKI-1
SK-OV-3 = system: SK-OV-3
MDA-MB-231 = system: MDA-MB-231
SK-MEL-2 = system: SK-MEL-2
UACC-62 = system: UACC-62
SF-295 = system: SF-295
UO-31 = system: UO-31
CCRF-CEM = system: CCRF-CEM
SW-620 = system: SW-620
KM12 = system: KM12
DU-145 = system: DU-145
MDA-N = system: MDA-N
SF-268 = system: SF-268
NCI-H522 = system: NCI-H522
COLO 205 = system: COLO 205
Hs-578T = system: Hs-578T
NCI-H460 = system: NCI-H460
SK-MEL-5 = system: SK-MEL-5
UACC-257 = system: UACC-257
EKVX = system: EKVX
HOP-92 = system: HOP-92
M14 = system: M14
NCI-H226 = system: NCI-H226
MCF7 = system: MCF7
SNB-19 = system: SNB-19
T47D = system: T47D
PC-3 = system: PC-3
A549 = system: A549
K562 = system: K562
U-251 = system: U-251
SF-539 = system: SF-539
A498 = system: A498
Malme-3M = system: Malme-3M

COc1cc(NCc2ccc3oc(=O)c(-c4ccccc4)nc3c2)cc(OC)c1OC
GI50 (OVCAR-4): > 10 µM (inactive) | GI50 (NCI-H23): > 10 µM (inactive) | GI50 (HOP-62): > 10 µM (inactive) | GI50 (HCC 2998): > 10 µM (inactive) | GI50 (ACHN): > 10 µM (inactive) | GI50 (NCI/ADR-RES): > 10 µM (inactive) | GI50 (HCT-15): > 10 µM | GI50 (RPMI-8226): > 10 µM (inactive) | GI50 (OVCAR-5): > 10 µM (inactive) | GI50 (SNB-75): > 10 µM (inactive) | GI50 (LOX IMVI): > 10 µM (inactive) | GI50 (HCT-116): > 10 µM (inactive) | GI50 (IGROV-1): > 10 µM (inactive) | GI50 (HT-29): > 10 µM (inactive) | GI50 (OVCAR-8): > 10 µM (inactive) | GI50 (RXF 393): > 10 µM (inactive) | GI50 (SN12C): > 10 µM (inactive) | GI50 (HL-60): > 10 µM (inactive) | GI50 (MOLT-4): > 10 µM (inactive) | GI50 (SK-MEL-28): > 10 µM (inactive) | GI50 (TK-10): > 10 µM (inactive) | GI50 (SR): > 10 µM (inactive) | GI50 (OVCAR-3): > 10 µM (inactive) | GI50 (MDA-MB-435): > 10 µM (inactive) | GI50 (786-0): > 10 µM (inactive) | GI50 (CAKI-1): > 10 µM (inactive) | GI50 (SK-OV-3): > 10 µM (inactive) | GI50 (MDA-MB-231): > 10 µM (inactive) | GI50 (SK-MEL-2): > 10 µM (inactive) | GI50 (UACC-62): > 10 µM (inactive) | GI50 (SF-295): > 10 µM (inactive) | GI50 (UO-31): > 10 µM (inactive) | GI50 (CCRF-CEM): > 10 µM (inactive) | GI50 (SW-620): > 10 µM (inactive) | GI50 (KM12): > 10 µM (inactive) | GI50 (DU-145): > 10 µM (inactive) | GI50 (MDA-N): > 10 µM (inactive) | GI50 (SF-268): > 10 µM (inactive) | GI50 (NCI-H522): > 10 µM (inactive) | GI50 (COLO 205): > 10 µM (inactive) | GI50 (Hs-578T): > 10 µM (inactive) | GI50 (NCI-H460): > 10 µM (inactive) | GI50 (SK-MEL-5): > 10 µM (inactive) | GI50 (UACC-257): > 10 µM (inactive) | GI50 (EKVX): > 10 µM (inactive) | GI50 (HOP-92): > 10 µM (inactive) | GI50 (M14): > 10 µM (inactive) | GI50 (NCI-H226): > 10 µM (inactive) | GI50 (MCF7): > 10 µM (inactive) | GI50 (SNB-19): > 10 µM (inactive) | GI50 (T47D): > 10 µM (inactive) | GI50 (PC-3): > 10 µM (inactive) | GI50 (A549): > 10 µM (inactive) | GI50 (K562): > 10 µM (inactive) | GI50 (U-251): > 10 µM (inactive) | GI50 (SF-539): > 10 µM (inactive)

COc1cc([C@@H]2c3cc4c(cc3[C@@H](Nc3ccc(Cl)cc3C(=O)c3ccccc3Cl)[C@H]3COC(=O)[C@H]23)OCO4)cc(OC)c1OC
GI50 (OVCAR-4): > 45.8 µM (inactive) | GI50 (NCI-H23): 0.166 µM (active) | GI50 (HOP-62): 0.443 µM (active) | GI50 (A498): 0.0989 µM (active) | GI50 (Malme-3M): 0.143 µM (active) | GI50 (HCC 2998): 0.373 µM (active) | GI50 (ACHN): 0.125 µM (active) | GI50 (NCI/ADR-RES): 0.173 µM (active) | GI50 (HCT-15): 0.102 µM | GI50 (RPMI-8226): 0.173 µM (active) | GI50 (SNB-75): 0.188 µM (active) | GI50 (LOX IMVI): 0.245 µM (active) | GI50 (HCT-116): 0.0738 µM (active) | GI50 (IGROV-1): 0.261 µM (active) | GI50 (HT-29): 0.09 µM (active) | GI50 (OVCAR-8): 0.152 µM (active) | GI50 (RXF 393): 0.144 µM (active) | GI50 (SN12C): 0.371 µM (active) | GI50 (HL-60): 0.0695 µM (active) | GI50 (MOLT-4): 0.142 µM (active) | GI50 (SK-MEL-28): 0.333 µM (active) | GI50 (TK-10): 39.7 µM (inactive) | GI50 (SR): 0.0713 µM (active) | GI50 (OVCAR-3): 0.332 µM (active) | GI50 (MDA-MB-435): 0.0661 µM (active) | GI50 (786-0): 0.261 µM (active) | GI50 (CAKI-1): 0.152 µM (active) | GI50 (SK-OV-3): 1.19 µM (inactive) | GI50 (MDA-MB-231): 0.39 µM (active) | GI50 (SK-MEL-2): 0.953 µM (active) | GI50 (UACC-62): 0.118 µM (active) | GI50 (SF-295): 0.121 µM (active) | GI50 (UO-31): 0.344 µM (active) | GI50 (CCRF-CEM): 0.101 µM (active) | GI50 (SW-620): 0.122 µM (active) | GI50 (KM12): 0.091 µM (active) | GI50 (DU-145): 0.314 µM (active) | GI50 (MDA-N): 0.0873 µM (active) | GI50 (SF-268): 0.189 µM (active) | GI50 (NCI-H522): 0.0685 µM (active) | GI50 (COLO 205): 0.267 µM (active) | GI50 (Hs-578T): 0.0241 µM (active) | GI50 (NCI-H460): 0.146 µM (active) | GI50 (SK-MEL-5): 0.102 µM (active) | GI50 (UACC-257): 0.184 µM (active) | GI50 (EKVX): 57.9 µM (inactive) | GI50 (M14): 0.303 µM (active) | GI50 (NCI-H226): 0.0294 µM (active) | GI50 (MCF7): 0.111 µM (active) | GI50 (SNB-19): 0.174 µM (active) | GI50 (T47D): > 100 µM (inactive) | GI50 (PC-3): 0.16 µM (active) | GI50 (A549): 0.34 µM (active) | GI50 (K562): 0.106 µM (active) | GI50 (U-251): 0.0998 µM (active) | GI50 (SF-539): 0.076 µM (active)
